Values of other authors in patent US8541178B2, “Analysis of antibody drug conjugates by bead-based affinity capture and mass spectrometry” (Genentech, Inc., priority 2008, dated 2013).

Details: more cytotoxic than conventional cancer chemotherapeutic agents

Compound: COc1cc2cc(c1Cl)N(C)C(=O)C[C@H](OC(=O)[C@H](C)N(C)C(C)=O)[C@]1(C)O[C@H]1[C@H](C)[C@@H]1C[C@@](O)(NC(=O)O1)[C@H](OC)/C=C/C=C(\C)C2 [Maytansine]
- Cytotoxicity relative to methotrexate, daunorubicin, and vincristine: 100- to 1000 fold
